In publication PMC9576799, “Discovery of small molecule inhibitors that effectively disrupt IQGAP1-Cdc42 interaction in breast cancer cells” (Scientific Reports, 2022):

How the values were obtained:
MCF7-siIQ8 cells = test: CellTiter-Glo cell viability assay, IQGAP1 knockdown MCF7; format: cell-based; conditions: Homo sapiens
Procedure: Selected hit compounds were tested in CellTiterGlo cell viability assays to determine their cytotoxic effect on IQGAP1 knockout and control MCF7 cells. Prior to the assay, we assessed cell proliferation to keep both cell lines at similar exponential growth rates within 80 h after plating. For this purpose, the cells were plated onto 384-well clear bottom black plates (Perkin Elmer, Ultra) at various cell densities (between 625 and 10,000 cells/50µL/well), spun down for 15 s, and placed into Incucyte SX5 (Essen BioScience) for automated bright-field channel reading every 4 h. […] For the cytotoxicity assays, cells were harvested with 0.05% trypsin, spun down at 125xg for 5 min, re-suspended in fresh DMEM supplemented with 5% (v/v) FBS, and seeded into 1536-well white solid bottom tissue culture-treated plates (Greiner One, #789173-F) at 600 cells/5µL/well for knockout cells and 300 cells/5µL/well for control cells using a Multidrop Combi dispenser (Thermo Fisher Scientific Inc.). […]
Plates and reagents were equilibrated to room temperature and then 5 µL/well of CellTiter Glo (Promega, #G7570) reagent was dispensed with a Multidrop Combi dispenser to the assay plates. After incubation for 10 min at ambient temperature, the luminescence signal was read with a ViewLux instrument (Perkin Elmer) with one second exposure. […]

[1] = system: filopodia in MDA-MB-231 cells; test: Filopodia quantification by confocal microscopy (FiloQuant); format: cell-based, human; conditions: 50 μM 2 h, EGF-stimulated
Procedure: MDA-MB231 cells were cultured in 24-well plates containing glass coverslips. When 60% confluent, cells were serum starved for 16 h, preincubated with 50 μM compound NCGC00131308 for 2 h, then incubated with 100 ng/mL epidermal growth factor (EGF) or vehicle for 10 min. Cells were fixed with 4% PFA and stained with Alexa Fluor 488 Phalloidin (Invitrogen™#A12379) and Hoechst 33342 (BD Biosciences #561908) to visualize F-actin and DNA, respectively. Coverslips were mounted with ProLong glass antifade mounting medium (Invitrogen), then imaged with a Zeiss LSM880 confocal microscope using a 63× objective lens. Cells and filopodia were segmented using FIJI/ImageJ[49]. Individual filopodia were segmented using the FiloQuant FIJI plugin[50]. Cells were segmented by Voronoi tessellation using Hoechst 33342 stained nuclei as seed points. The segmented images were quantified using the scikit-image Python package. The following geometric and spatial parameters of the filopodia were quantified: (1) the branch length of each filopodial segment, (2) cumulative area of each segment, (3) eccentricity, defined as the […], and (4) the number of filopodial segments per unit exposed cell membrane. Further data handling and plotting were done using the tidyverse R package. At least 200 cells were analyzed for each condition.

| Structure (SMILES) | Emax (MCF7-siIQ8 cells; MCF7, 72 h, read-out: cytotoxicity efficacy) [%] | IC50 (MCF7-siIQ8 cells; IQGAP1 knockdown MCF7-siIQ8 cells, 72 h, read-out: cytotoxicity EC50) [nM] | filopodia area [1] | filopodia length [1] | filopodia shape (eccentricity) [1] | number of filopodia per cell [1] |
| --- | --- | --- | --- | --- | --- | --- |
| Cc1cccc(NC(=O)c2c(NC(=O)C(F)(F)F)sc3c2CCCCC3)c1 [NCGC00098561] | ~100 | 2240 |  |  |  |  |
| CCN1CCN(c2ncc3c(n2)CCN(Cc2cc(Br)cs2)C3)CC1 [NCGC00131308] |  |  | significantly decreased | significantly decreased | reduced eccentricity | significantly decreased |
